In patent US9492450B2, “Inhibition of dynamin related protein 1 to promote cell death” (University of Pittsburgh—of the Commonwealth System of …, priority 2011, dated 2016):

How the values were obtained:
[1] = system: Drp1 wild-type (WT) and knockout (KO) SV40-transformed MEF cells; assay: Drp1 wild-type and knockout MEF cells: cleaved caspase-3, CyQuant, OCR; type: cell-based, mouse
Procedure: FIG. 21A-F. Mdivi-1 enhances cisplatin sensitivity through Drp1-independent mechanisms. (A) Confirmation of the depletion of Drp1 in Drp1 knockout SV40-transformed MEF cells by western blot. (B) Drp1 wild-type (Drp1+/+) and knockout (Drp1−/−) MEF cells were treated as indicated for 20 h, and the number of apoptotic cells was determined by antibody recognizing cleaved caspase-3. […] (C) Drp1 wild-type and knockout MEF cells were treated with mdivi-1 for 24 h, and the cell number were determined by CyQuant assay. (D) OCR was measured after 1 h treatment of Drp1 wild-type and knockout MEF cells with DMSO or mdivi-1. (E) The combination effect of cisplatin with four analogs of mdivi-1. […]
Cell proliferation was determined using a CyQUANT Direct Cell Proliferation Assay kit (Invitrogen), the activity of caspase-3/7 was measured using a Caspase-Glo 3/7 Assay Systems (Promega, Madison, Wis.), and the MTS colorimetric survival assay was performed using the CellTiter 96 AQueous One Solution Cell Proliferation Assay kit (Promega, Madison, Wis.), according to the manufacturer's instructions. The survival fractions were calculated after setting untreated control cells at 100%. […] The cytotoxic interactions between the two drugs was determined using the method of Chou and Talalay. The combination index (CI) was determined using a computer program CompuSyn. […]

H1299 cells = assay: Mitochondrial function: ATP, OCR, ECAR, TMRM membrane potential; type: cell-based, human; details: 50 μM, 4 h
Procedure: FIG. 25A-I. Mdivi-1 causes mitochondrial dysfunction and its combination with cisplatin induces mitochondrial swelling that triggers Bax/Bak-independent MOMP. (A) MDA-MB-231 cells and H1299 cells were treated as indicated for 4 h and subjected to ATP determination. […] (B, C) OCR and ECAR were measured after 4 h treatment of H1299 cells with agents alone or the combination (C/M). (D) H1299 cells were treated as indicated for 4 h. Mitochondrial membrane potential was determined with TMRM. (E) Bax/Bak double knockout MEF cells were treated with DMSO or the combination, with or without the presence of 10 μM FCCP for 2 h. Mitochondrial membrane potential was measured as in D. (F) Bax/Bak double knockout MEF cells were treated as indicated for 2 h, ROS generation was determined with DCF-DA. (G) Bax/Bak double knockout MEF cells were pre-incubated with 5 μM MitoSox for 30 min, and then treated as indicated for 2 h followed by flow cytometry. […] Mitochondrial morphology was analyzed by confocal microscopy. […] Mitochondrial ultrastructure was analyzed by electron microscopy. […]
Total cellular ATP content was determined using a luminescent ATP detection kit, ATPlite (PerkinElmer Life Sciences, Boston, Mass.), according to the manufacturer's instruction. The luminescence intensity was measured using a microplate reader, Synergy 2 (BioTek instruments, Winooski, Vt.). […]

## COc1cc(-n2c(=S)[nH]c3ccccc3c2=O)c(Cl)cc1Cl [mdivi-1]
[1]; 1 h treatment
  mitochondrial respiration (OCR) in Drp1 WT and KO cells: inhibition
[1]; 24 h
  cell proliferation (CyQuant) in Drp1 WT and KO cells: inhibition of cell proliferation
H1299 cells
  extracellular acidification rate (ECAR): enhanced the extracellular acidification rate
  oxygen consumption rate (OCR) / mitochondrial respiration: suppressed mitochondrial respiration
